{"source": "paper PMC2796837", "about": "(Journal of biological inorganic chemistry : JBIC : a …, 2008)", "origin": "cited, not measured here", "key": {"[1]": {"settings": "I = 1.0 M KCl, 25°C"}, "[2]": {"settings": "Ce^3+ complex"}, "[3]": {"settings": "I = 1.0 M KCl, 25°C", "remark": "listed apart in the source"}, "[4]": {"settings": "I = 1.0 M KCl, 25°C", "remark": "listed apart in the source"}, "[5]": {"settings": "I = 1.0 M KCl, 25°C", "remark": "listed apart in the source"}, "[6]": {"settings": "I = 1.0 M KCl, 25°C", "remark": "listed apart in the source"}, "[7]": {"settings": "I = 1.0 M KCl, 25°C", "remark": "listed apart in the source"}, "[8]": {"settings": "I = 1.0 M KCl, 25°C", "remark": "listed apart in the source"}, "[9]": {"settings": "I = 1.0 M KCl, 25°C", "remark": "listed apart in the source"}, "[10]": {"settings": "I = 1.0 M KCl, 25°C", "remark": "listed apart in the source"}, "[11]": {"settings": "I = 1.0 M KCl, 25°C", "remark": "listed apart in the source"}, "[12]": {"settings": "I = 1.0 M KCl, 25°C", "remark": "listed apart in the source"}, "[13]": {"settings": "I = 1.0 M and 25 °C"}}, "note": "Where two headings read alike, the source gives them in different places.", "data": [{"smiles": "O=C(O)CN1CCN(CC(=O)O)CCN(CC(=O)O)CCN(CC(=O)O)CC1", "note": "[DOTA]", "values": [{"measurement": "log KML, Lu^3+", "setting": "[1]", "result": 25.4}, {"measurement": "k1 (proton assisted dissociation rate constant)", "setting": "[2]", "result": 0.0008, "unit": "M⁻¹ s⁻¹"}, {"measurement": "log KCuL", "setting": "[3]", "result": 22.72}, {"measurement": "log KMgL", "setting": "[4]", "result": 11.15}, {"measurement": "log KML, Eu^3+", "setting": "[5]", "result": 23.5}, {"measurement": "log KML, Ce^3+", "setting": "[6]", "result": 23.4}, {"measurement": "log KCaL", "setting": "[7]", "result": 16.37}, {"measurement": "log KML, Yb^3+", "setting": "[8]", "result": 25.0}, {"measurement": "log KML, Nd^3+", "setting": "[9]", "result": 23.0}, {"measurement": "log K1^H", "setting": "[10]", "result": 12.60}, {"measurement": "log K2^H", "setting": "[10]", "result": 9.70}, {"measurement": "log K3^H", "setting": "[10]", "result": 4.50}, {"measurement": "log K4^H", "setting": "[10]", "result": 4.14}, {"measurement": "log K5^H", "setting": "[10]", "result": 2.32}, {"measurement": "log KZnL", "setting": "[11]", "result": 18.17}, {"measurement": "log KML, Dy^3+", "setting": "[12]", "result": 24.8}]}, {"smiles": "O=C([O-])CN1CCN(CC(=O)[O-])CCN(C(CO)C(O)CO)CCN(CC(=O)[O-])CC1.[Gd+3]", "note": "(centres unmarked) [GdDO3A-butrol]", "values": [{"measurement": "LD50", "result": 23, "unit": "mmolkg^−1"}]}, {"smiles": "CC(O)CN1CCN(CC(=O)[O-])CCN(CC(=O)[O-])CCN(CC(=O)[O-])CC1.[Gd+3]", "note": "(centres unmarked) [GdHP-DO3A]", "values": [{"measurement": "LD50", "result": 12, "unit": "mmolkg^−1"}]}, {"smiles": "CN1CCNCC1", "note": "[N-methylpiperazine]", "values": [{"measurement": "log K1^H", "setting": "[13]", "result": 4.83}]}, {"smiles": "C1CNCCN1", "note": "[piperazine]", "values": [{"measurement": "log K1^H", "setting": "[13]", "result": 6.04}]}]}
